Tests used:
Hsp90 = target: T1, Hsp90 (Homo sapiens, UniProt P07900); test: Fluorescence Polarization (FP) binding, GM-BODIPY displacement from Hsp90; details: GM-BODIPY tracer, 4° C. for 4 hours
T1 construct: purchased Stressgen SPP-776
Method: GM-BODIPY (PerkinElmer, CUSN60342000MG) was previously dissolved in DMSO to obtain 10 mM stock solutions and kept at −20° C. until use.
Hsp90 (Stressgen, SPP-776), was previously dissolved in assay buffer (HFB) to form 2.2 μM stock solutions and kept at −80° C. until use.
The compounds were previously dissolved in DMSO to obtain stock solutions and kept at −20° C. The day of experiment, the compounds were prepared by serial dilutions in assay buffer (HFB) containing 20 mM HEPES (K) pH 7.3, 50 mM KCl, 5 mM MgCl2, 20 mM Na2MoO4 and 0.01% NP40. Before each use, 0.1 mg/ml Bovine Gamma globulin and 2 mM DTT were freshly added.
Fluorescence Polarization (FP) was performed in Opti-Plate™-96F well plates (Perkin Elmer, Zaventem, Belgium) using a plate reader (Wallac Envision 2101 multilabel reader, Perkin Elmer, Zaventem, Belgium). To evaluate the binding affinity of the molecules, 50 μl of the GM-BODIPY solution (100 nM) were added to 125 nM of Hsp90 in the presence of 5 μl of the test compounds at increasing concentrations. The plate was mixed on a shaker at 4° C. for 4 hours, and the FP values in mP (millipolarization units) were recorded. The IC50 values were calculated as the inhibitor concentration where 50% of the tracer is displaced; each data point is the result of the average of triplicate wells, and was determined from a plot using nonlinear least-squares analysis. Curve fitting was performed using
Prism GraphPad software program (GraphPad software, Inc., San Diego, Calif.).

[1] = tested on: NCI-H460 non-small cell lung carcinoma; test: Cytotoxicity assay, sulphorodamine B test, NCI-H460; format: cell-based; details: Homo sapiens, NCI-H460; 72 h, sulphorodamine B
Method: (§1) The antiproliferative activity of novel Hsp90 inhibitors was also evaluated on various cancerous cell lines by means of the sulphorodamine B test (i.e., NCI-H460 non-small cell lung carcinoma, A431 epidermoid, A2780 ovarian, MDA-MB436 triple-negative breast, U87MG glioblastoma, A498 renal, HCT116 colon, MeWo melanoma, MiaPaCa2 pancreas, HeLa cervix uteri, NB4 promyelocytic leukemia). NCI-H460, A431, MDA-MB436, A2780, A498, HeLa, NB4 tumour cells were grown in RPMI 1640 containing 10% fetal bovine serum (i.e., FBS from GIBCO), L-glutamine, and 50 μg/ml gentamycin sulfate.
(§2) All cell lines were maintained in a 37° C. incubator with saturated humidity and an atmosphere containing 95% air and 5% CO2, and were sub-cultured every 2-3 days. Tumour cells were seeded in 96-well tissue culture plates at approximately 10% confluence and were allowed to attach and recover for 24 h.
(§3) Varying concentrations of the drugs were then added to each well to calculate their IC50 value (the concentration which inhibits the 50% of cell survival). The plates were incubated at 37° C. for 72 h. At the end of the treatment, the plates were washed by remotion of the supernatant and addition of PBS 3 times. 200 μl PBS and 50 μl of cold 80% trichloroacetic acid (TCA) were added. The plates were incubated on ice for at least 1 h. TCA was removed, the plates were washed 3 times by immersion in distilled-water and dried on paper and at 40° C. for […]. Then 200 μl of 0.4% sulphorodamine B in 1% acetic acid were added. The plates were incubated at room temperature for 30 min. Sulphorodamine B was removed, the plates were washed by immersion in 1% acetic acid for 3 times, then they were dried on paper and at 40° C. for 5 min. Then, 200 μl Tris 10 mM were added, the plates were kept under stirring for 20 min. The cell survival was determined as optical density by a Multiskan […] at 540 nm. The amount of cells killed was calculated as the percentage decrease in sulphorodamine B binding compared with control cultures.

A498 renal = test: Sulphorodamine B test at single concentration, A498; format: cell-based; details: Homo sapiens, 500 nM, 72 h
Method: as §1, §2, §3
(§4) The other cell lines were screened against one single concentration of the various inhibitors (i.e., 500 nM), all experiments being made in octuplicate, following the protocol described at example 35. Since NB4 cell line was grown in suspension, a further step of centrifugation (i.e., 1600 g for 10 min) was added after the 72 hour incubation period.

HCT116 colon = test: Sulphorodamine B test at single concentration, HCT116; format: cell-based; details: Homo sapiens, HCT-116; 500 nM, 72 h
Method: as §1
HCT116 cells were cultured in McCoy's medium containing 10% FBS, L-glutamine, and 50 μg/ml gentamycin sulfate.
as §2, §3, §4

A431 epidermoid = test: Sulphorodamine B test at single concentration, A431; format: cell-based; details: Homo sapiens, A-431; 500 nM, 72 h
Method: as §1, §2, §3, §4

[2] = tested on: MDA-MB436 triple-negative breast; test: Sulphorodamine B test at single concentration, MDA-MB436; format: cell-based; details: Homo sapiens, MDA-MB-436; 500 nM, 72 h
Method: as §1, §2, §3, §4

HeLa cervix uteri = test: Sulphorodamine B test at single concentration, HeLa; format: cell-based; details: Homo sapiens, 500 nM, 72 h
Method: as §1, §2, §3, §4

MeWo melanoma = test: Sulphorodamine B test at single concentration, MeWo; format: cell-based; details: Homo sapiens, 500 nM, 72 h
Method: as §1
(§5) MeWo and U87-MG cells were cultured in Eagle's Minimum Essential Medium (i.e., EMEM) containing 10% FBS, L-glutamine, 1 mM sodium pyruvate, 0.1 mM non-essential amino acids, 1.5 g/l sodium bicarbonate, and 50 μg/ml gentamycin sulphate.
as §2, §3, §4

A2780 ovarian = test: Sulphorodamine B test at single concentration, A2780; format: cell-based; details: Homo sapiens, 500 nM, 72 h
Method: as §1, §2, §3, §4

MiaPaCa2 pancreas = test: Sulphorodamine B test at single concentration, MiaPaCa2; format: cell-based; details: Homo sapiens, MIA PaCa-2; 500 nM, 72 h
Method: as §1
MiaPaCa2 cells were cultured in DMEM medium containing 10% FBS, L-glutamine, and 50 μg/ml gentamycin sulfate.
as §2, §3, §4

[3] = tested on: NB4 promyelocytic leukemia; test: Sulphorodamine B test at single concentration, NB4; format: cell-based; details: 500 nM, 72 h, suspension cells
Method: as §1, §2, §3, §4

U87MG glioblastoma = test: Sulphorodamine B test at single concentration, U87MG; format: cell-based; details: Homo sapiens, U-87 MG; 500 nM, 72 h
Method: as §1, §5, §2, §3, §4

| SMILES | IC50 (Hsp90) [nM] | IC50 [1] [nM] | inhibition at 0.5 µM (A2780 ovarian) [%] | inhibition at 0.5 µM (MiaPaCa2 pancreas) [%] | other results |
| --- | --- | --- | --- | --- | --- |
| CC(C)c1cc(-n2nncc2-c2ccc(CN3CCN(Cc4ccccc4)CC3)cc2)c(O)cc1O [Example 3, 4-{5-[4-(4-benzyl-piperazin-1-ylmethyl)-phenyl]-[1,2,3]triazol-1-yl}-6-isopropyl-benzene-1,3-diol] | < 50 | 100 to 500 | ≥ 50 | ≥ 50 | inhibition at 0.5 µM (A498 renal): 30 to 50%; inhibition at 0.5 µM (HCT116 colon): ≥ 50%; inhibition at 0.5 µM (A431 epidermoid): ≥ 50%; inhibition at 0.5 µM [2]: ≥ 50%; inhibition at 0.5 µM (HeLa cervix uteri): ≥ 50%; inhibition at 0.5 µM (MeWo melanoma): ≥ 50%; inhibition at 0.5 µM [3]: ≥ 50% |
| CCNC(=O)c1nnn(-c2cc(C(C)C)c(O)cc2O)c1-c1ccc(CN(CC)CC)cc1 [Example 10, 5-(4-diethylaminomethyl-phenyl)-1-(2,4-dihydroxy-5-isopropyl-phenyl)-1H-[1,2,3]triazole-4-carboxylic acid ethylamide] | < 50 | < 50 | – | – | – |
| CCNC(=O)c1nnn(-c2cc(C(C)C)c(O)cc2O)c1-c1ccc(CN2CCNCC2)cc1 [Example 12, 1-(2,4-dihydroxy-5-isopropyl-phenyl)-5-(4-piperazin-1-ylmethyl-phenyl)-1H-[1,2,3]triazole-4-carboxylic acid ethylamide] | < 50 | 100 to 500 | ≥ 50 | ≥ 50 | inhibition at 0.5 µM (A498 renal): 30 to 50%; inhibition at 0.5 µM [2]: ≥ 50% |
| CCNC(=O)c1nnn(-c2cc(C(C)C)c(O)cc2O)c1-c1ccc(CN2CCC(N(C)C)CC2)cc1 [Example 13, 1-(2,4-dihydroxy-5-isopropyl-phenyl)-5-[4-(4-dimethylamino-piperidin-1-ylmethyl)-phenyl]-1H-[1,2,3]triazole-4-carboxylic acid ethylamide] | < 50 | 100 to 500 | ≥ 50 | ≥ 50 | inhibition at 0.5 µM (A498 renal): 30 to 50%; inhibition at 0.5 µM (HCT116 colon): ≥ 50%; inhibition at 0.5 µM (U87MG glioblastoma): ≥ 50%; inhibition at 0.5 µM (A431 epidermoid): ≥ 50%; inhibition at 0.5 µM [2]: ≥ 50%; inhibition at 0.5 µM (HeLa cervix uteri): 30 to 50%; inhibition at 0.5 µM (MeWo melanoma): ≥ 50% |
| CCNC(=O)c1nnn(-c2cc(C(C)C)c(O)cc2O)c1-c1ccc(CNC2CCCCC2)cc1 [Example 16, 5-(4-cyclohexylaminomethyl-phenyl)-1-(2,4-dihydroxy-5-isopropyl-phenyl)-1H-[1,2,3]triazole-4-carboxylic acid ethylamide] | < 50 | < 50 | – | – | – |
| CCNC(=O)c1nnn(-c2cc(C(C)C)c(O)cc2O)c1-c1ccc(CNC2CCN(C)CC2)cc1 [Example 19, 1-(2,4-dihydroxy-5-isopropyl-phenyl)-5-{4-[(1-methyl-piperidin-4-ylamino)-methyl]-phenyl}-1H-[1,2,3]triazole-4-carboxylic acid ethylamide] | < 50 | – | – | – | – |
| CC(C)c1cc(-n2nncc2Nc2ccc(N3CCOCC3)cc2)c(O)cc1O [Example 23, 4-isopropyl-6-[5-(4-morpholin-4-yl-phenylamino)-[1,2,3]triazol-1-yl]-benzene-1,3-diol] | 50 to 100 | – | – | – | – |
| CCNC(=O)c1nnn(-c2cc(C(C)C)c(O)cc2O)c1Nc1ccc(N2CCOCC2)cc1 [Example 25, 1-(2,4-dihydroxy-5-isopropyl-phenyl)-5-(4-morpholin-4-yl-phenylamino)-1H-[1,2,3]triazole-4-carboxylic acid ethylamide] | 50 to 100 | 500 to 1000 | – | – | – |
| CCNC(=O)c1nnn(-c2cc(C(C)C)c(O)cc2O)c1NCc1ccc(N2CCOCC2)cc1 [Example 26, 1-(2,4-dihydroxy-5-isopropyl-phenyl)-5-(4-morpholin-4-yl-benzylamino)-1H-[1,2,3]triazole-4-carboxylic acid ethylamide] | < 50 | 100 to 500 | ≥ 50 | ≥ 50 | inhibition at 0.5 µM (A498 renal): ≥ 50%; inhibition at 0.5 µM (HCT116 colon): ≥ 50%; inhibition at 0.5 µM (MeWo melanoma): 30 to 50%; inhibition at 0.5 µM [3]: 30 to 50% |
| CC(C)c1cc(-n2nnc(C(=O)N3CCOCC3)c2-c2ccc(CN3CCOCC3)cc2)c(O)cc1O [Example 30, [1-(2,4-dihydroxy-5-isopropyl-phenyl)-5-(4-morpholin-4-ylmethyl-phenyl)-1H-[1,2,3]triazol-4-yl]-morpholin-4-yl-methanone] | 100 to 500 | – | – | – | – |

Further lines, with some results ahead:

| IC50 (Hsp90) [nM] | SMILES | IC50 [1] [nM] | inhibition at 0.5 µM (A2780 ovarian) [%] | inhibition at 0.5 µM (MiaPaCa2 pancreas) [%] | other results |
| --- | --- | --- | --- | --- | --- |
| < 50 | CC(C)c1cc(-n2nncc2-c2ccc(CN3CCOCC3)cc2)c(O)cc1O [Example 1] | 100 to 500 | – | – | – |
| < 50 | CC(C)c1cc(-n2nncc2-c2ccc(CN3CCN(c4ccccc4)CC3)cc2)c(O)cc1O [Example 4, 4-isopropyl-6-{5-[4-(4-phenyl-piperazin-1-ylmethyl)-phenyl]-[1,2,3]triazol-1-yl}-benzene-1,3-diol] | 500 to 1000 | – | – | – |
| < 50 | CCNC(=O)c1nnn(-c2cc(C(C)C)c(O)cc2O)c1-c1ccc(CNCCN2CCOCC2)cc1 [Example 14, 1-(2,4-dihydroxy-5-isopropyl-phenyl)-5-{4-[(2-morpholin-4-yl-ethylamino)-methyl]-phenyl}-1H-[1,2,3]triazole-4-carboxylic acid ethylamide] | 100 to 500 | ≥ 50 | ≥ 50 | inhibition at 0.5 µM (HCT116 colon): 30 to 50%; inhibition at 0.5 µM (U87MG glioblastoma): ≥ 50%; inhibition at 0.5 µM (A431 epidermoid): ≥ 50%; inhibition at 0.5 µM [2]: ≥ 50%; inhibition at 0.5 µM (MeWo melanoma): ≥ 50% |
| < 50 | CCNC(=O)c1nnn(-c2cc(C(C)C)c(O)cc2O)c1-c1ccc(CNCCCN(CC)CC)cc1 [Example 18, 5-{4-[(3-diethylamino-propylamino)-methyl]-phenyl}-1-(2,4-dihydroxy-5-isopropyl-phenyl)-1H-[1,2,3]triazole-4-carboxylic acid ethylamide] | 500 to 1000 | – | – | – |
| 100 to 500 | CC(C)c1cc(-n2nncc2NCc2ccc(N3CCOCC3)cc2)c(O)cc1O [Example 24, 4-isopropyl-6-[5-(4-morpholin-4-yl-benzylamino)-[1,2,3]triazol-1-yl]-benzene-1,3-diol] | – | – | – | – |
| 100 to 500 | CC(C)c1cc(-n2nnc(C(=O)N[C@H](C(=O)O)C(C)C)c2-c2ccc(CN3CCOCC3)cc2)c(O)cc1O [Example 31, (S)-2-{[1-(2,4-dihydroxy-5-isopropyl-phenyl)-5-(4-morpholin-4-ylmethyl-phenyl)-1H-[1,2,3]triazole-4-carbonyl]-amino}-3-methyl-butyric acid] | – | – | – | – |

From patent US9302998B2, “Aryl triazole compounds with antitumoural activity” (SIGMA-TAU RESEARCH SWITZERLAND S.A., priority 2010, dated 2016)
